Like-named read-outs stand apart in the source and are kept apart here.
Key:
Assay type in all cases: cell-based
TRP channel (TRPM8) = biological target: T1, TRP channel (TRPM8) (Mus musculus, UniProt Q8R4D5); assay: Ca2+-imaging of stable HEK293T cell line TRPM8; settings: for inhibition at 4 µM: HEK-293T, read-out: Percent Inhibition TRPM8
T1 construct: Full-length cDNAs for mosquito (Anopheles gambiae) odorant receptor (OR1, OR2, OR7, OR8, OR28), and fly (Drosophila melanogaster) odorant receptor (Or47a, Or83b), mouse TRP channel (TRPM8); expressed in transfected cells
Method: (§1) Full-length cDNAs for mosquito (Anopheles gambiae) odorant receptor (OR1, OR2, OR7, OR8, OR28), and fly (Drosophila melanogaster) odorant receptor (Or47a, Or83b), mouse TRP channel (TRPM8), and mouse serotonin receptor (5HT3) were obtained and subcloned into mammalian expression vectors. The following mammalian expression vectors were used:
(§2) Stable cell lines OR1/OR7, OR2/OR7, OR8/OR7, OR10/OR7, OR28/OR7 and TRPM8 were generated from HEK293T cells. HEK293T-based cell lines were cultured in DMEM supplemented with these additional antibiotics: 6 μg/mL blasticidin and 1 μg/mL puromycin, with the exception of the TRPM8 cell lines, which was cultured in DMEM supplemented with 1 μg/mL puromycin.
(§3) Cells were trypsinized and split into 35 mm dishes one day before transfection. Confluent cells (60-70%) in 35 mm dishes were transfected with 1 μg of insect OR(X) plasmids in pME18s-bla and 1 μg of OR7-pME18s-puro using lipofectamine 2000. For Anopheles odorant receptors, two plasmids were co-transfected into HEK cells: the ligand-specific receptor (OR1, OR2, OR8, OR28) and the corresponding olfactory co-receptor: OR7. Cell lines containing TRPM8 were transfected with single plasmid.
(§4) Stable cell lines were cultured in 10 cm dishes, and confluent cells (70-80%) were trypsinized. 10,000 cells/20 μL were transferred into each well of 384-well plates coated with poly-D-lysine, and cultured for 2 days. For Flip-In T-Rex cells (cell lines expressing Or47a/Or83b and 5HT3), 5 μL of tetracycline (5 μg/mL) were added 1 day before the assay. 20 μL of Ca-4 dye was loaded into each well for 1.5 hr at room temperature in the dark, and the dye-loaded plates were subjected to Ca^2+-imaging using a Hamamatsu FDSS6000 real time fluorescence plate reader. Odorant solutions (9× final concentration) were prepared by dissolving 1M stock solutions into Hank's Buffered Salt Solution (HBSS), and 30 μL of odor solution was transferred to each well in 384-well plates.
(§5) Compounds ([…] in DMSO) were stored in 384-well plates, and last two columns (32 wells total) contained only DMSO. 200 nL of small compounds were transferred into the odorant plates before the assay using the Perkin-Elmer Janus workstation. The odorant plates were spun down to remove air bubbles, and placed on the FDSS6000 plate loader, and 5 μL of odorant solution was applied to the cell plate on the FDSS6000. Ca^2+ increase was monitored with fluorescence at 525 nm by excitation at 485 nm.

OR10/OR7 = OR10/OR7 (Anopheles gambiae, UniProt B5U0U7+Q7QCC7); assay: Ca2+-imaging of stable HEK293T cell line OR10/OR7; settings: for inhibition at 4 µM: HEK-293T, read-out: Percent Inhibition OR10 OR7
Method: as §2
After one day of incubation, the transfected cells were transferred into 10 cm dishes with DMEM containing antibiotics as follows: • 0.5 μg/mL of blasticidin for OR1/OR7, OR2/OR7, OR8/OR7, OR10/OR7, OR28/OR7 • 0.2 μg/mL of puromycin for TRPM8.
as §4, §5

OR28/OR7 = OR28/OR7 (Anopheles gambiae, UniProt A0A1S4GFY3+Q7QCC7); assay: Ca2+-imaging of stable HEK293T cell line OR28/OR7; settings: for inhibition at 4 µM: HEK-293T, read-out: Percent Inhibition OR28 OR7
Method: as §1, §2, §3, §4, §5

Sequence of OR10/OR7 (Q7QCC7 whole entry): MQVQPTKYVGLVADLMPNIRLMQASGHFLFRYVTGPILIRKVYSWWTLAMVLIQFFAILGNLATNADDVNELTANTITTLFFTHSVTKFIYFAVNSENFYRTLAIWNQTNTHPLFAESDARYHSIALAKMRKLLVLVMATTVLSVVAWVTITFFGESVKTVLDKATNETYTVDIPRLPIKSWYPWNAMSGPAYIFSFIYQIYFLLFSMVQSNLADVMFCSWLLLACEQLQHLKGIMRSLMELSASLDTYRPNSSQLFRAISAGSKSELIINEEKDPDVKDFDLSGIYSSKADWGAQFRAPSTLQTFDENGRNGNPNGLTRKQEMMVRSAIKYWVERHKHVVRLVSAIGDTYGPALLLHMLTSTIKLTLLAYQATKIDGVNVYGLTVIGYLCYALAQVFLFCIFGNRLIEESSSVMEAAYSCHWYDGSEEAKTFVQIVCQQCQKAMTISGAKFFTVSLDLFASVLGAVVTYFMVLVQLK
Sequence of OR10/OR7 (B5U0U7 entry or part of it): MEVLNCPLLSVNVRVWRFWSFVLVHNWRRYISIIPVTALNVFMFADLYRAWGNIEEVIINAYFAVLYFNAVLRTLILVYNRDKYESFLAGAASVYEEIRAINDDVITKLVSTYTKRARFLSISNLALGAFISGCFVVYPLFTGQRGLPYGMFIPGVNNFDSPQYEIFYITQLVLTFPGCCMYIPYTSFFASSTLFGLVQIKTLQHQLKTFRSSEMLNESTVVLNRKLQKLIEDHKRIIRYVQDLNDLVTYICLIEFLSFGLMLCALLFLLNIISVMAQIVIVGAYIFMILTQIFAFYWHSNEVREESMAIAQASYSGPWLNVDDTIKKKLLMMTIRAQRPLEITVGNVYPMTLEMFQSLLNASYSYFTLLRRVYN
Sequence of OR28/OR7 (A0A1S4GFY3 entry or part of it): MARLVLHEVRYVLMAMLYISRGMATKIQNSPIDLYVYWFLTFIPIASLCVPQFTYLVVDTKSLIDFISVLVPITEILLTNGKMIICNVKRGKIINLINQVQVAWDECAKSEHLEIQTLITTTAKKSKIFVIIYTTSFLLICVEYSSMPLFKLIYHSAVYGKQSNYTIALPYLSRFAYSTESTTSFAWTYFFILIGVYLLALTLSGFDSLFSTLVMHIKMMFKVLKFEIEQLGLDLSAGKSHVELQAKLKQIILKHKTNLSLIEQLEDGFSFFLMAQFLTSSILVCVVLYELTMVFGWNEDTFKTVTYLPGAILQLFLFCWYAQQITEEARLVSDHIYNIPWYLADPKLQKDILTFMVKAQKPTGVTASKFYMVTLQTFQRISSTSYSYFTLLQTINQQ
Sequence of OR28/OR7 (Q7QCC7 whole entry): as the sequence (Q7QCC7 whole entry) above
T1 sequence (Q8R4D5 whole entry): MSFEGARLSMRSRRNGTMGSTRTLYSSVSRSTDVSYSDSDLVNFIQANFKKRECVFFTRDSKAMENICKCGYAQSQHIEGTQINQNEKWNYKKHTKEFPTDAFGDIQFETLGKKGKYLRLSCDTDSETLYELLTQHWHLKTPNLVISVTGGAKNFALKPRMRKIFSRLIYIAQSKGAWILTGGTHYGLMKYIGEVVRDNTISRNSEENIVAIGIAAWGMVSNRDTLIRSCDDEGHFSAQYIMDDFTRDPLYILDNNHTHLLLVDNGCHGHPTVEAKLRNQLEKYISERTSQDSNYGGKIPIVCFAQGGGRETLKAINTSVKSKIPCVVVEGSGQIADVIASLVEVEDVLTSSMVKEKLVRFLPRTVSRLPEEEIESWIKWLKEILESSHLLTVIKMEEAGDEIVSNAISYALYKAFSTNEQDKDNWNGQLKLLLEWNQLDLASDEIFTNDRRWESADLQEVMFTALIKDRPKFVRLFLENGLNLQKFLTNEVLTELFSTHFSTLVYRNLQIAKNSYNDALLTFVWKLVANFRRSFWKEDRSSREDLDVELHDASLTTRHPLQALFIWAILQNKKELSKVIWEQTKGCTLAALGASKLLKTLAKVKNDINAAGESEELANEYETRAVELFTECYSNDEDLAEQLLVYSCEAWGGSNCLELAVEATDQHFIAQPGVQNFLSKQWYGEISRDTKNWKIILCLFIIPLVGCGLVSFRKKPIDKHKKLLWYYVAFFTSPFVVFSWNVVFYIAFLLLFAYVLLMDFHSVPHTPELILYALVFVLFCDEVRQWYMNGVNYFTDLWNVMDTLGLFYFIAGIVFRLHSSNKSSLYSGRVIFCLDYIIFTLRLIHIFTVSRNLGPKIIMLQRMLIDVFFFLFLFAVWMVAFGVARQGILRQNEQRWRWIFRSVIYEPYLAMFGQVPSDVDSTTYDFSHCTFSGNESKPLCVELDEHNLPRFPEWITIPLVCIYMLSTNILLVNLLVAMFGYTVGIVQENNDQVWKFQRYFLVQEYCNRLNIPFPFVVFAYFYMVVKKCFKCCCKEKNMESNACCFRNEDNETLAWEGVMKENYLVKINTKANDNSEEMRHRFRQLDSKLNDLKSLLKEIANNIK

`Cc1cc(N(C)C2CCCCC2)nc(SCc2cccc(C(=O)N3CCCC3)c2)n1` [RU-0034108] was tested, and the inhibition at 4 µM (TRP channel (TRPM8); compound applied at 4 μM) was less than 25%, the inhibition at 4 µM (OR10/OR7; compound applied at 4 μM) was 26 to 50% and the inhibition at 4 µM (OR28/OR7; compound applied at 4 μM) was 26 to 50%.

For `C=CCNC(=O)C(NC(=O)c1cccc(C)c1)C1CCN(C(=O)c2cccc(Br)c2)CC1` (stereo not drawn) [RU-0039123], the inhibition at 4 µM (TRP channel (TRPM8); compound applied at 4 μM) was less than 25%, the inhibition at 4 µM (OR10/OR7; compound applied at 4 μM) was 26 to 50% and the inhibition at 4 µM (OR28/OR7; compound applied at 4 μM) was greater than 75%. For the same molecule, the IC50 (OR28/OR7; Table B, read-out: IC50 OR28) was less than 100 nM.

In the case of `CCN(CC)C(=O)Oc1ccc2c(ccn2Cc2ccc(Cl)cc2)c1NC(=O)C1CC1` [RU-0075475], the inhibition at 4 µM (TRP channel (TRPM8)) is reported as less than 25%, the IC50 (OR10/OR7) is reported as less than 100 nM and the inhibition at 4 µM (OR10/OR7) is reported as greater than 75%. For the same molecule, the IC50 (OR28/OR7) was greater than 1000 nM and the inhibition at 4 µM (OR28/OR7) was greater than 75%.

Work on `COCCN(Cc1c(-c2ccccc2)noc1N(C)C1CCCCC1)C(=O)c1ccccc1OC` [RU-0037275] yielded an inhibition at 4 µM (TRP channel (TRPM8); compound applied at 4 μM) of less than 25%, an inhibition at 4 µM (OR10/OR7; compound applied at 4 μM) of less than 25% and an inhibition at 4 µM (OR28/OR7; compound applied at 4 μM) greater than 75%. For the same molecule, the IC50 (OR28/OR7; Table B, read-out: IC50 OR28) was less than 100 nM.

In the case of `N#Cc1ccccc1C(=O)N1CCOC(COCc2c(Cl)cccc2Cl)C1` (stereo not drawn) [RU-0050405], the inhibition at 4 µM (TRP channel (TRPM8); compound applied at 4 μM) is reported as less than 25%, the inhibition at 4 µM (OR10/OR7; compound applied at 4 μM) is reported as 26 to 50% and the IC50 (OR10/OR7; Table B, read-out: IC50 OR10) is reported as greater than 1000 nM. For the same molecule, the inhibition at 4 µM (OR28/OR7; compound applied at 4 μM) was greater than 75% and the IC50 (OR28/OR7; Table B, read-out: IC50 OR28) was less than 100 nM.

`O=C(c1ccco1)N(Cc1nccn1Cc1ccccc1Cl)CC1CC1` [RU-0047281] gave an inhibition at 4 µM (TRP channel (TRPM8); compound applied at 4 μM) of 51 to 74%, an IC50 (TRP channel (TRPM8); Table B, read-out: IC50 TRPM8) greater than 1000 nM and an inhibition at 4 µM (OR10/OR7; compound applied at 4 μM) greater than 75%. It also gave an inhibition at 4 µM (OR28/OR7; compound applied at 4 μM) greater than 75% and an IC50 (OR28/OR7; Table B, read-out: IC50 OR28) of less than 100 nM.

`CCN(C)c1onc(-c2ccccc2)c1CN(CCCOC)C(=O)c1ccco1` [RU-0051926] was tested, and the inhibition at 4 µM (TRP channel (TRPM8); compound applied at 4 μM) was less than 25%, the inhibition at 4 µM (OR10/OR7; compound applied at 4 μM) was 26 to 50% and the inhibition at 4 µM (OR28/OR7; compound applied at 4 μM) was greater than 75%. It also gave an IC50 (OR28/OR7; Table B, read-out: IC50 OR28) greater than 1000 nM.

`O=C(c1cccnc1Cl)N1CCOC(COCc2c(Cl)cccc2Cl)C1` (stereo not drawn) [RU-0050372] showed an inhibition at 4 µM (TRP channel (TRPM8); compound applied at 4 μM) of less than 25%, an inhibition at 4 µM (OR10/OR7; compound applied at 4 μM) of 26 to 50% and an inhibition at 4 µM (OR28/OR7; compound applied at 4 μM) greater than 75%. The IC50 (OR28/OR7; Table B, read-out: IC50 OR28) was less than 100 nM.

`CCN(CC)c1onc(-c2ccc(F)cc2)c1CN(CCCOC)C(=O)c1ccc2c(c1)OCO2` [RU-0036983] was tested, and the inhibition at 4 µM (TRP channel (TRPM8); compound applied at 4 μM) was 26 to 50%, the inhibition at 4 µM (OR10/OR7; compound applied at 4 μM) was 26 to 50% and the inhibition at 4 µM (OR28/OR7; compound applied at 4 μM) was greater than 75%. The IC50 (OR28/OR7; Table B, read-out: IC50 OR28) was less than 100 nM.

Molecule `CCc1c(C(=O)NCc2cccnc2)cnn1-c1ccccc1` [RU-0048504] has an inhibition at 4 µM (TRP channel (TRPM8); compound applied at 4 μM) of less than 25%, an inhibition at 4 µM (OR10/OR7; compound applied at 4 μM) of 51 to 74% and an IC50 (OR10/OR7; Table B, read-out: IC50 OR10) of less than 100 nM. It also gave an inhibition at 4 µM (OR28/OR7; compound applied at 4 μM) greater than 75% and an IC50 (OR28/OR7; Table B, read-out: IC50 OR28) of less than 100 nM.

With `COCCN(Cc1c(-c2ccccc2)noc1N1CCSCC1)CC(O)COCc1ccco1` (stereo not drawn) [RU-0037278] the inhibition at 4 µM (TRP channel (TRPM8); compound applied at 4 μM) was less than 25%, the inhibition at 4 µM (OR10/OR7; compound applied at 4 μM) was 26 to 50% and the inhibition at 4 µM (OR28/OR7; compound applied at 4 μM) was greater than 75%. For the same molecule, the IC50 (OR28/OR7; Table B, read-out: IC50 OR28) was less than 100 nM.

With `COc1ccc(OCC(=O)N2CCOC(Cc3ccccc3)C2)cc1` (stereo not drawn) [RU-0050384] the inhibition at 4 µM (TRP channel (TRPM8); compound applied at 4 μM) was less than 25%, the inhibition at 4 µM (OR10/OR7; compound applied at 4 μM) was less than 25% and the inhibition at 4 µM (OR28/OR7; compound applied at 4 μM) was greater than 75%. The IC50 (OR28/OR7; Table B, read-out: IC50 OR28) was 100 to 1000 nM.

Molecule `O=C(c1c(F)c(F)cc(F)c1F)N1CCOC(Cc2ccccc2)C1` (stereo not drawn) [RU-0050393] has an inhibition at 4 µM (TRP channel (TRPM8); compound applied at 4 μM) of less than 25%, an inhibition at 4 µM (OR10/OR7; compound applied at 4 μM) of 51 to 74% and an IC50 (OR10/OR7; Table B, read-out: IC50 OR10) greater than 1000 nM. For the same molecule, the inhibition at 4 µM (OR28/OR7; compound applied at 4 μM) was greater than 75% and the IC50 (OR28/OR7; Table B, read-out: IC50 OR28) was less than 100 nM.

For `CCOC(=O)CCC(=O)N(CCc1ccccc1)CC(=O)Nc1cc(C(C)(C)C)nn1-c1ccccc1C` [RU-0072462], the inhibition at 4 µM (TRP channel (TRPM8); compound applied at 4 μM) was less than 25%, the inhibition at 4 µM (OR10/OR7; compound applied at 4 μM) was 26 to 50% and the inhibition at 4 µM (OR28/OR7; compound applied at 4 μM) was greater than 75%. For the same molecule, the IC50 (OR28/OR7; Table B, read-out: IC50 OR28) was less than 100 nM.

Molecule `CCn1c(C)c(C(=O)CN(CC2CCCO2)C(=O)C2C[C@H]2c2ccccc2)c(C)c1C(=O)OC` (stereo partly drawn) [RU-0071273] has an inhibition at 4 µM (TRP channel (TRPM8); compound applied at 4 μM) of less than 25%, an inhibition at 4 µM (OR10/OR7; compound applied at 4 μM) of 51 to 74% and an IC50 (OR10/OR7; Table B, read-out: IC50 OR10) of less than 100 nM. It also gave an inhibition at 4 µM (OR28/OR7; compound applied at 4 μM) greater than 75% and an IC50 (OR28/OR7; Table B, read-out: IC50 OR28) of less than 100 nM.

`CN(C)c1ccc(C(=O)N2CCOC(COCc3ccccc3F)C2)cc1` (stereo not drawn) [RU-0050325] gave an inhibition at 4 µM (TRP channel (TRPM8); compound applied at 4 μM) of less than 25%, an inhibition at 4 µM (OR10/OR7; compound applied at 4 μM) of less than 25% and an inhibition at 4 µM (OR28/OR7; compound applied at 4 μM) greater than 75%. The IC50 (OR28/OR7; Table B, read-out: IC50 OR28) was less than 100 nM.
